Laboratory results: patent US10344019B2 (priority 2010, dated 2019)
pEC50: −log10 of the molar value. Like-named read-outs stand apart in the source and are kept apart here.

Tests used:
Type in all cases: cell-based
[1] = tested on: HCV 2a Rluc cells (NS5A chimeric genotype 2a JFH-1 replicon with genotype 2a J6 strain NS5A gene, M31 present); assay: HCV replicon reporter assay, genotype 2a J6 (M31 present); settings: Hepatitis C virus, read-out: 2a J6
In short: (§1)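 Renilla luciferase HCV replicon cells: dicistronic 1b Con1, 1a H77 or 2a JFH-1 replicons, or a JFH-1 chimera carrying J6 NS5A (M31 present). Compound in DMSO serial dilutions, 72 h incubation, then lysis and luciferase read. EC50 by non-linear regression.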

[2] = tested on: HCV 1a RLuc cells (dicistronic genotype 1a H77 replicon, RLuc reporter); assay: microbe, parasite or virus in culture; settings: Hepatitis C virus, read-out: 1a
In short: as §1

[3] = tested on: HCV 2a JFH-1 Rluc cells (dicistronic genotype 2a JFH-1 replicon, RLuc reporter); assay: microbe, parasite or virus in culture; settings: Hepatitis C virus, read-out: 2a JFH
In short: as §1

[4] = tested on: HCV 3a RLuc cells (NS5A chimeric genotype 1b Con1 replicon with consensus genotype 3a NS5A gene); assay: microbe, parasite or virus in culture; settings: Hepatitis C virus
In short: (§2)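 Replicon cells stably carrying the listed RLuc-encoding dicistronic replicons were seeded and treated with DMSO serial dilutions of compound (10 mM stocks) diluted into culture medium. After 72 h, cells were lysed and Renilla luciferase activity measured. EC50 was derived by non-linear regression.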

[5] = tested on: HCV 1b RLuc cells (dicistronic genotype 1b Con1 replicon, RLuc reporter); assay: microbe, parasite or virus in culture; settings: Hepatitis C virus, read-out: 1b (nM)
In short: as §1

[6] = tested on: HCV 4a Rluc cells (NS5A chimeric genotype 1b Con1 replicon with genotype 4a NS5A gene); assay: microbe, parasite or virus in culture; settings: Hepatitis C virus, read-out: 4a
In short: as §2

[7] = tested on: Q30R in genotype 1a NS5A, 1a Rluc replicon transfected into Huh-7 cured-51 cells; assay: HCV replicon assay, resistance mutant 1a Q30R; settings: Hepatitis C virus, Huh-7, read-out: 1a Q30R
Protocol: Evaluation of cell-based anti-HCV activity: Antiviral potency (EC50) was determined using a Renilla luciferase (RLuc)-based HCV replicon reporter assay. To perform the assay for genotype 1 and 2a JFH-1, HCV 1b RLuc cells (harboring a dicistronic genotype 1b Con1 replicon that encodes a RLuc reporter), or HCV 1a RLuc cells (harboring a dicistronic genotype 1a H77 replicon that encodes a RLuc reporter), or HCV 2a JFH-1 Rluc cells (harboring a dicistronic genotype 2a JFH-1 replicon that encodes a RLuc reporter) were dispensed into 384-well plates. To perform the assay for genotype 2a (with M31 present) or 2b, HCV 2a Rluc or 2b Rluc cells (both with M31 present) harboring a dicistronic NS5A chimeric genotype 2a JFH-1 replicon that encodes a RLuc reporter and either genotype 2a J6 strain NS5A gene or genotype 2b MD2b-1 NS5A gene (based on Los Alamos HCV database isolates, both with M31 present) respectively, were dispensed into 384-well plates. To perform the assay for genotype 3 and 4, HCV 3a RLuc or 4a Rluc cells harboring a dicistronic NS5A chimeric genotype 1b Con1 replicon that encodes a RLuc reporter and either a consensus genotype 3a NS5A gene or genotype 4a NS5A gene (based on Los Alamos HCV database isolates) respectively, were dispensed into 384-well plates. Compounds were re-suspended in DMSO at a concentration of 10 mM and serially diluted in DMSO either manually or using an automated pipeting instrument. Serially diluted compounds were mixed with cell culture media and added to the seeded cells. […] 72 hours later, cells were lysed and Renilla luciferase activity quantified as recommended by the manufacturer (Promega-Madison, Wis.). Non-linear regression was performed to calculate EC50 values.
To determine the antiviral potency (EC50) against resistance mutants, resistance mutations, including M28T, Q30R, Q30H, L31M, and Y93C in genotype 1a NS5A and Y93H in genotype 1b NS5A, were introduced individually into either 1a Rluc or 1b Rluc replicons described above by site directed mutagenesis. Replicon RNA of each resistant mutant was transfected into Huh-7 cured-51 cells and antiviral potency was determined on these transfected cells as described above.

[8] = tested on: HCV 2b Rluc cells (NS5A chimeric genotype 2a JFH-1 replicon with genotype 2b MD2b-1 NS5A gene, M31 present); assay: microbe, parasite or virus in culture; settings: Hepatitis C virus, read-out: 2b
In short: as §2

[9] = read-out: 3a, genotype 3a replicon
[10] = genotype 2a JFH-1 RLuc replicon
[11] = read-out: 3a, genotype 3a NS5A chimeric replicon

| Structure (SMILES) | pEC50 [1] | pEC50 ([2]; genotype 1a replicon) | pEC50 ([3]; genotype 2a JFH-1 replicon) | pEC50 [4, 9] | EC50 [5] [nM] | pEC50 [6] | pEC50 [7] | pEC50 [8] | pEC50 ([2]; genotype 1a H77 RLuc replicon) | pEC50 [3, 10] | pEC50 [4, 11] |
| --- | --- | --- | --- | --- | --- | --- | --- | --- | --- | --- | --- |
| COC(=O)N[C@H](C(=O)N1CCC[C@H]1c1nc(Cl)c(-c2cc3c4c(c2)OCc2cc(-c5[nH]c([C@@H]6CCCN6C(=O)[C@@H](NC(=O)OC)C(C)C)nc5Cl)cc(c2-4)OC3)[nH]1)C(C)C [Example 384] | 7.36 to 9.00 | 9.00 to 12.00 | 9.00 to 12.00 | 9.00 to 12.00 | 0.013 | 9.00 to 12.00 | 7.36 to 9.00 |  |  |  |  |
| COC(=O)N[C@H](C(=O)N1CCC[C@H]1c1nc(Cl)c(-c2ccc(-c3ccc(-c4[nH]c([C@@H]5CCCN5C(=O)[C@@H](NC(=O)OC)C(C)C)nc4Cl)cc3)cc2)[nH]1)C(C)C [Example 352] | 7.36 to 9.00 | 9.00 to 12.00 | 9.00 to 12.00 | 9.00 to 12.00 | 0.011 | 9.00 to 12.00 |  | 7.36 to 9.00 |  |  |  |
| COC[C@H]1C[C@@H](c2nc3ccc4cc(-c5ccc6c(ccc7nc([C@@H]8CCCN8C(=O)[C@H](NC(=O)C8CC8)c8ccccc8)[nH]c76)c5)ccc4c3[nH]2)N(C(=O)[C@@H](NC(=O)OC)C(C)C)C1 [Example 512] | 9.00 to 12.00 |  |  |  | 0.035 | 9.00 to 12.00 |  | 9.00 to 12.00 | 9.00 to 12.00 | 9.00 to 12.00 | 9.00 to 12.00 |
| COC(=O)N[C@H](C(=O)N1CC2(C[C@H]1c1nc3ccc4cc(-c5ccc(-c6cnc([C@@H]7CCCN7C(=O)[C@H](NC(=O)OC)c7ccccc7)[nH]6)cc5)ccc4c3[nH]1)OCCO2)C(C)C [Example 411] | 7.36 to 9.00 | 9.00 to 12.00 | 9.00 to 12.00 | 9.00 to 12.00 | 0.034 | 9.00 to 12.00 |  | 7.36 to 9.00 |  |  |  |
| COCCC(=O)N[C@@H](C(=O)N1CCC[C@H]1c1ncc(-c2cc3c4c(c2)OCc2cc(-c5cnc([C@@H]6CCCN6C(=O)[C@H](NC(=O)CCOC)c6ccccc6)[nH]5)cc(c2-4)OC3)[nH]1)c1ccccc1 [Example 480] | 7.36 to 9.00 | 9.00 to 12.00 | 9.00 to 12.00 | 9.00 to 12.00 | 0.684 | 9.00 to 12.00 |  | 9.00 to 12.00 |  |  |  |
| COC(=O)N[C@H](C(=O)N1CCC[C@H]1c1nc2ccc3cc(-c4ccc5c(ccc6nc([C@@H]7C[C@H](COC(F)F)CN7C(=O)[C@H](NC(=O)C7CC7)c7ccccc7)[nH]c65)c4)ccc3c2[nH]1)C(C)C [Example 547] | 9.00 to 12.00 |  |  |  | 0.005 | 9.00 to 12.00 |  | 9.00 to 12.00 | 9.00 to 12.00 | 9.00 to 12.00 | 9.00 to 12.00 |
| COC(=O)N[C@H](C(=O)N1CCC[C@H]1c1nc2ccc3cc(-c4ccc5c(ccc6nc([C@@H]7C[C@H](SC)CN7C(=O)[C@@H](NC(=O)OC)C(C)C)[nH]c65)c4)ccc3c2[nH]1)C(C)C [Example 515] | 9.00 to 12.00 |  |  |  | 0.047 | 9.00 to 12.00 |  | 7.36 to 9.00 | 9.00 to 12.00 | 9.00 to 12.00 | 9.00 to 12.00 |
| COC[C@H]1C[C@@H](c2ncc(-c3ccc(-c4ccc5c(ccc6nc([C@@H]7CCCN7C(=O)[C@H](NC(=O)OC)c7ccccc7)[nH]c65)c4)cc3)[nH]2)N(C(=O)[C@@H](NC(=O)OC)C(C)C)C1 [Example 442] | 9.00 to 12.00 | 9.00 to 12.00 | 9.00 to 12.00 | 9.00 to 12.00 | 0.029 | 9.00 to 12.00 |  | 9.00 to 12.00 |  |  |  |
